Laboratory results taken from patent US8481546B2, “CGRP receptor antagonist” (Bristol-Myers Squibb Company, priority 2010, dated 2013).

Assay: Solution state stability
Assay type: physicochemical
Description: The solution state stability of Compound I was evaluated as a function of temperature, pH, high intensity light (HIL), buffer concentration, and drug concentration.
Succinate buffer was used for all solutions. For samples exposed to light, a photostability chamber was used in accordance with ICH guidelines (1.2 million lux hour exposure to visible light and 200 watt hour/m^2 to UV). Analyses were performed at 4, 8 and 12 weeks.

[1] = Sample A: pH 4, 40 C, 0.1 mg/ml drug, 0.05 M succinate buffer
[2] = Sample B: pH 5, 25 C, 0.1 mg/ml drug, 0.05 M succinate buffer
[3] = Sample C: pH 5, 25 C/light, 0.1 mg/ml drug, 0.05 M succinate buffer
[4] = Sample D: pH 5, 60 C, 0.1 mg/ml drug, 0.05 M succinate buffer
[5] = Sample E: pH 5, 40 C, 0.1 mg/ml drug, 0.05 M succinate buffer
[6] = Sample F: pH 6, 40 C, 0.1 mg/ml drug, 0.05 M succinate buffer
[7] = Sample G: pH 4, 40 C, 40 mg/ml drug, 0.05 M succinate buffer
[8] = Sample H: pH 5, 40 C, 40 mg/ml drug, 0.05 M succinate buffer
[9] = Sample I: pH 6, 40 C, 40 mg/ml drug, 0.05 M succinate buffer
[10] = Sample J: pH 5, 40 C, 0.1 mg/ml drug, 0.01 M succinate buffer

## Cc1cc(C[C@@H](NC(=O)N2CCC(c3cc4ccccc4[nH]c3=O)CC2)C(=O)N2CCN(C3CCN(C)CC3)CC2)cc2cn[nH]c12 [Compound I, (R)—N-(3-(7-methyl-1H-indazol-5-yl)-1-(4-(1-methylpiperidin-4-yl)piperazin-1-yl)-1-oxopropan-2-yl)-4-(2-oxo-1,2-dihydroquinolin-3-yl)piperidine-1-carboxamide]
[1]
  Area percent of Deg A at twelve weeks: 2.0 area percent
  Area percent of Deg C at twelve weeks: 10.5 area percent
[2]
  Area percent of Deg A at twelve weeks: .5 area percent
  Area percent of Deg B at twelve weeks: 0.1 area percent
[3]
  Area percent of Deg A at twelve weeks: 16.9 area percent
  Area percent of Deg B at twelve weeks: 2.9 area percent
  Area percent of Deg C at twelve weeks: 2.8 area percent
  Area percent of Deg D at twelve weeks: 5.2 area percent
  Area percent of Deg E at twelve weeks: 1.0 area percent
  Area percent of Deg F at twelve weeks: 7.7 area percent
  Area percent of Deg I at twelve weeks: 5.7 area percent
[4]
  Area percent of Deg A at twelve weeks: 1.2 area percent
  Area percent of Deg C at twelve weeks: 55.0 area percent
[5]
  Area percent of Deg A at twelve weeks: 1.9 area percent
  Area percent of Deg B at twelve weeks: 0.2 area percent
  Area percent of Deg E at twelve weeks: .1 area percent
[6]
  Area percent of Deg A at twelve weeks: .4 area percent
  Area percent of Deg B at twelve weeks: 0.1 area percent
  Area percent of Deg E at twelve weeks: .1 area percent
[7]
  Area percent of Deg A at twelve weeks: 4.9 area percent
  Area percent of Deg E at twelve weeks: 3.5 area percent
  Area percent of Deg G at twelve weeks: 0.1 area percent
  Area percent of Deg H at twelve weeks: .1 area percent
  Area percent of Deg J at twelve weeks: 0.1 area percent
[8]
  Area percent of Deg A at twelve weeks: 1.2 area percent
  Area percent of Deg B at twelve weeks: 0.1 area percent
  Area percent of Deg E at twelve weeks: 0.0 area percent
  Area percent of Deg G at twelve weeks: 0.1 area percent
  Area percent of Deg J at twelve weeks: 0.0 area percent
[9]
  Area percent of Deg A at twelve weeks: .2 area percent
  Area percent of Deg B at twelve weeks: 0.1 area percent
  Area percent of Deg C at twelve weeks: 0.0 area percent
  Area percent of Deg E at twelve weeks: 0.0 area percent
  Area percent of Deg G at twelve weeks: 0.1 area percent
  Area percent of Deg J at twelve weeks: 0.1 area percent
[10]
  Area percent of Deg A at twelve weeks: 1.1 area percent
  Area percent of Deg B at twelve weeks: 0.1 area percent
  Area percent of Deg E at twelve weeks: .1 area percent
  Area percent of Deg H at twelve weeks: 0.5 area percent
Condition I in Table 2: pH 6, 40 C, 40 mg/ml drug, 0.05 M buffer
  degradation after 12 weeks at 40 C: 0.3%
